Measurements from patent publication US20200188361A1, “USE OF MITOCHONDRIAL ACTIVITY INHIBITORS FOR THE TREATMENT OF POOR PROGNOSIS ACUTE MYELOID LEUKEMIA” (UNIVERSITE DE MONTREAL, priority 2016, published 2020).
Where two headings read alike, the source gives them in different places.

Experiments:
OCI-AML3 cells = test: Dose-response curves in AML cell line (6-day culture assay in 384-well plates); assay type: cell-based; details: dose-response curves FIGS. 5H-J
Description: FIGS. 5A-5J show the results on experiments assessing the mode of action of Mubritinib for mediating tumor cell death. FIG. 5A: OCI-AML3 leukemic cells were either pre-incubated for 4 hours with 6 mM N-acetyl-cysteine (NAC), a reactive oxygen species (ROS) scavenger, or with vehicle (water) before being treated with 100 nM Mubritinib for 24 h or vehicle (DMSO). […] FIGS. 5C and 5D show the levels of reduced and oxidized levels of glutathione, respectively, in OCI-AML3 treated or not with Mubritinib, as detected by liquid chromatography-mass spectrometry (LC/MS). […] FIG. 5G is a graph depicting dose-response curves upon Mubritinib treatment (6-day culture assay in 384-well plates) of OCI-AML3 and OCI-AML5 cell lines. FIGS. 5H-J are graphs depicting dose-response curves following treatment of OCI-AML3 and OCI-AML5 cell lines with other ETC inhibitors, namely Oligomycin (inhibitor of complex V, FIG. 5H), Rotenone (inhibitor of complex I, FIG. 5I) and Deguelin (inhibitor of complex I, FIG. 5J).
OCI-AML3 cells were maintained in alpha-MEM, 20% FBS whereas breat tumor BT474 cells were maintained in DMEM 10% FBS.
(§1) Patient cells were seeded in 384-well plates at a density of 5,000 cells in 50 μL per well. In the initial screen, compounds were added to seeded cells in serial dilutions (10 dilutions, 1:3, starting from 10 μM or 20 μM), in duplicates. Cells treated with 0.1% DMSO without additional compound were used as negative controls. Viable cell counts per well were evaluated after 6 days of culture using the CellTiterGlo® assay (Promega®) according to the manufacturer's instruction. The percent of inhibition was calculated as follows: 100−(100×(mean luminescence(compound)/mean luminescence(DMSO)); where mean-luminescence(compound) corresponds to the average of luminescent signals obtained for the compound-treated cells, and mean-luminescence(DMSO) corresponds to the average of luminescent signals obtained for the control DMSO-treated cells.

[1] = test system: HOX-med/low AML patient cells; test: Primary chemical screen of 60 compounds, cell dose-response viability assay (CellTiterGlo, 6 days); assay type: cell-based, human; details: primary screen, mean over HOX-med/low patient specimens, 6 days culture, top concentration 10 μM or 20 μM, read-out: MEAN EC50 HOX-med/low
Description: (§2) frozen AML mono-nucleated cells were thawed at 37° C. in Iscove's modified Dulbecco's medium (IMDM) containing 20% FBS and DNase I (100 μg/mL).
(§3) All powders were dissolved in DMSO and diluted in culture medium immediately before use. Final DMSO concentration in all conditions was 0.1%. The 60 compounds were purchased from various suppliers including Santa Cruz, Selleckchem, Calbiochem, AdooQ Bioscience, Cayman chemical and Synkinase.
(§4) Patient cells were seeded in 384-well plates at a density of 5,000 cells in 50 μL per well. In the initial screen, compounds were added to seeded cells in serial dilutions (10 dilutions, 1:3, starting from 10 μM or 20 μM), in duplicates. Cells treated with 0.1% DMSO without additional compound were used as negative controls. Viable cell counts per well were evaluated after 6 days of culture using the CellTiterGlo® assay (Promega®) according to the manufacturer's instruction.
(§5) Using high expression of HOXA9 and HOXA10 as a surrogate for the detection of HOX-network-high patient samples, the survival of HOX-high versus HOX-med/low specimens contacted with 60 inhibitors targeting receptor tyrosine kinases (RTK), members of the RAS and PI3K pathways, was assessed (FIG. 2A, Table 4).

[2] = test system: HOX-high AML patient cells; test: as above; assay type: cell-based, human; details: for EC50: primary screen, mean over HOX-high patient specimens, 6 days culture, top concentration 10 μM or 20 μM, read-out: MEAN EC50 HOX-high; for FOLD CHANGE High/Med-low: ratio of mean EC50 HOX-high to mean EC50 HOX-med/low
Description: as §2, §3, §4, §5

AML patient specimens = test: Cell dose-response viability assay on AML patient specimens (primary and validation screen); assay type: cell-based, human; details: all 41 AML patient specimens tested, primary screen (FIG. 4D)
Description: as §2, §1

Row | SMILES | sensitivity of OCI-AML3 relative to OCI-AML5 (OCI-AML3 cells) | EC50 ([1]; Homo sapiens, 144 h) [µM] | EC50 ([2]; Homo sapiens, 144 h) [µM] | FOLD CHANGE High/Med-low [2] | further results
1 | COc1cc2c(cc1OC)[C@@H]1C(=O)c3ccc4c(c3O[C@@H]1CO2)C=CC(C)(C)O4 [Deguelin] | more sensitive than OCI-AML5 | – | – | – | –
2 | CS(=O)(=O)CCNCc1ccc(-c2ccc3ncnc(Nc4ccc(OCc5cccc(F)c5)c(Cl)c4)c3c2)o1 [Lapatinib ditosylate., Lapatinib ditosylate] | – | 9.92 | 8.87 | 0.9 | sensitivity of AML patient specimens (AML patient specimens): resistant
3 | CC[C@H]1/C=C/C=C/C[C@@H](C)[C@H](O)[C@@](C)(O)C(=O)[C@@H](C)[C@H](O)[C@@H](C)C(=O)[C@@H](C)[C@H](O)[C@@H](C)/C=C/C(=O)O[C@@H]2[C@H](C)[C@H](CC1)O[C@]1(CC[C@H](C)[C@H](C[C@@H](C)O)O1)[C@H]2C [Oligomycin] | more sensitive than OCI-AML5 | – | – | – | –
4 | C=C(C)[C@H]1Cc2c(ccc3c2O[C@@H]2COc4cc(OC)c(OC)cc4[C@@H]2C3=O)O1 [Rotenone] | more sensitive than OCI-AML5 | – | – | – | –
5 | C=CCNC1=C2C[C@@H](C)C[C@H](OC)[C@H](O)[C@@H](C)/C=C(\C)[C@H](OC(N)=O)[C@@H](OC)/C=C\C=C(/C)C(=O)NC(=CC1=O)C2=O [Tanespimycin 17AAG, Tanespimycin] | – | 0.249 | 0.314 | 1.3 | –
6 | CCCS(=O)(=O)Nc1ccc(F)c(C(=O)c2c[nH]c3ncc(-c4ccc(Cl)cc4)cc23)c1F [Vemurafenib] | – | 8.44 | 9.7 | 1.2 | –
7 | COc1ccc(-c2ccc3c(N4CCOC[C@@H]4C)nc(N4CCOC[C@@H]4C)nc3n2)cc1CO [AZD8055, (5-(2,4-bis((S)-3-methylmorpholino)pyrido[2,3-d]pyrimidin-7-yl)-2-methoxyphenyl)methanol] | – | 0.0692 | 0.324 | 4.7 | –
8 | CC(C)c1cc(/C=C(\C#N)C(=O)NCCCc2ccccc2)cc(C(C)C)c1O [SU1498] | – | – | – | 1.0 | EC50 [1]: 9.67 µM; EC50 [2]: 9.86 µM
9 | Nc1[nH]nc2nnc(-c3c(-c4ccccc4)nn4ccccc34)cc12 [ERK Inhibitor II FR180204] | – | – | – | 1.0 | EC50 [1]: > 10 µM; EC50 [2]: > 10 µM
